From patent US20250311727A1, “SUBSTITUTED 2-AMINOAZINES AND SALTS THEREOF, AND USE THEREOF AS HERBICIDAL ACTIVE SUBSTANCES” (BAYER AKTIENGESELLSCHAFT, priority 2022, published 2025)

Columns and labels:
Format in all cases: in vivo
[1] = system: Amaranthus retroflexus; experiment: Post-emergence herbicidal efficacy at 80 g/ha, AMARE; conditions: rated visually after about 3 weeks vs untreated controls, 100% = plants have died
From the text: (§1) Unwanted plants/weeds: • ABUTH: Abutilon theophrasti • ALOMY: Alopecurus myosuroides • AMARE: Amaranthus retroflexus • DIGSA: Digitaria sanguinalis • ECHCG: Echinochloa crus-galli • KCHSC: Kochia scoparia • LOLRI: Lolium rigidum • MATIN: Matricaria inodora • POAAN: Poa annua • POLCO: Polygonum convolvulus • SETVI: Setaria viridis • STEME: Stellaria media • VERPE: Veronica persica • VIOTR: Viola tricolor A. Post-Emergence Herbicidal Efficacy at 320 g/ha
(§2) Seeds of monocotyledonous and dicotyledonous weeds and crop plants were placed in sandy loam in plastic or organic planting pots, covered with soil and cultivated in a greenhouse under controlled growth conditions. 2 to 3 weeks after sowing, the test plants were treated at the one-leaf stage. The compounds of the invention, formulated in the form of wettable powders (WP) or as emulsion concentrates (EC), were then sprayed onto the green parts of the plants as aqueous suspension or emulsion with addition of 0.5% additive at a water application rate of 600 l/ha (converted). After the test plants had been kept in the greenhouse under optimum growth conditions for about 3 weeks, the activity of the preparations was rated visually in comparison to untreated controls. For example, 100% activity=the plants have died, 0% activity=like control plants.
(§3) Tables B1 to B11 below show the effects of selected compounds of the general formula (I) according to Table 1 on various harmful plants and an application rate corresponding to 80 g/ha, which were obtained by the experimental procedure mentioned above.

[2] = system: Echinochloa crus-galli; experiment: Post-emergence herbicidal efficacy at 80 g/ha, ECHCG; conditions: rated visually after about 3 weeks vs untreated controls, 100% = plants have died
From the text: as §1, §2, §3

[3] = system: Echinochloa crus-galli; experiment: Pre-emergence herbicide efficacy at 80 g/ha, ECHCG; conditions: scored visually after about 3 weeks vs untreated controls, 100% = plants have died
From the text: as §1
(§4) Seeds of monocotyledonous and dicotyledonous weed plants and crop plants were placed in plastic or organic planting pots and covered with soil. The compounds of the invention, formulated in the form of wettable powders (WP) or as emulsion concentrates (EC), were then applied to the surface of the covering soil as aqueous suspension or emulsion with addition of 0.5% additive at a water application rate equivalent to 600 l/ha. After the treatment, the pots were placed in a greenhouse and kept under good growth conditions for the test plants. After about 3 weeks, the efficacy of the preparations was scored visually in comparison with untreated controls as percentages. For example, 100% activity=the plants have died, 0% activity=like control plants.
(§5) Tables D1 to D12 below show the effects of selected compounds of the general formula (I) according to Table 1 on various harmful plants and an application rate corresponding to 80 g/ha, which were obtained by the experimental procedure mentioned above.

[4] = system: Matricaria inodora; experiment: Pre-emergence herbicide efficacy at 80 g/ha, MATIN; conditions: scored visually after about 3 weeks vs untreated controls, 100% = plants have died
From the text: as §1, §4, §5

[5] = system: Kochia scoparia; experiment: Pre-emergence herbicide efficacy at 80 g/ha, KCHSC; conditions: scored visually after about 3 weeks vs untreated controls, 100% = plants have died
From the text: as §1, §4, §5

[6] = system: Polygonum convolvulus; experiment: Pre-emergence herbicide efficacy at 80 g/ha, POLCO; conditions: scored visually after about 3 weeks vs untreated controls, 100% = plants have died
From the text: as §1, §4, §5

[7] = system: Viola tricolor; experiment: Post-emergence herbicidal efficacy at 80 g/ha, VIOTR; conditions: rated visually after about 3 weeks vs untreated controls, 100% = plants have died
From the text: as §1, §2, §3

[8] = system: Amaranthus retroflexus; experiment: Pre-emergence herbicide efficacy at 80 g/ha, AMARE; conditions: scored visually after about 3 weeks vs untreated controls, 100% = plants have died
From the text: as §1, §4, §5

[9] = system: Digitaria sanguinalis; experiment: Pre-emergence herbicide efficacy at 80 g/ha, DIGSA; conditions: scored visually after about 3 weeks vs untreated controls, 100% = plants have died
From the text: as §1, §4, §5

[10] = system: Veronica persica; experiment: Post-emergence herbicidal efficacy at 80 g/ha, VERPE; conditions: rated visually after about 3 weeks vs untreated controls, 100% = plants have died
From the text: as §1, §2, §3

[11] = system: Veronica persica; experiment: Pre-emergence herbicide efficacy at 80 g/ha, VERPE
From the text: as §1, §4, §5

[12] = system: Abutilon theophrasti; experiment: Pre-emergence herbicide efficacy at 80 g/ha, ABUTH; conditions: scored visually after about 3 weeks vs untreated controls, 100% = plants have died
From the text: as §1, §4, §5

[13] = system: Viola tricolor; experiment: Pre-emergence herbicide efficacy at 80 g/ha, VIOTR
From the text: as §1, §4, §5

Cc1cnc(Nc2cccc(C#N)c2-n2cc(C(F)(F)F)cn2)nc1 [Example 1-39]
Post-emergence efficacy at 80 g/ha against AMARE in % [1]: 80% | Post-emergence efficacy at 80 g/ha against ECHCG in % [2]: 80% | Pre-emergence efficacy at 80 g/ha against ECHCG in % [3]: 100% | Pre-emergence efficacy at 80 g/ha against MATIN in % [4]: 100% | Pre-emergence efficacy at 80 g/ha against KCHSC in % [5]: 90% | Pre-emergence efficacy at 80 g/ha against POLCO in % [6]: 90% | Post-emergence efficacy at 80 g/ha against VIOTR in % [7]: 80% | Pre-emergence efficacy at 80 g/ha against AMARE in % [8]: 100% | Pre-emergence efficacy at 80 g/ha against DIGSA in % [9]: 100% | Post-emergence efficacy at 80 g/ha against VERPE in % [10]: 90% | Pre-emergence efficacy against VERPE [11]: 90% | Pre-emergence efficacy at 80 g/ha against ABUTH in % [12]: 100% | Pre-emergence efficacy against VIOTR [13]: 100%
